Measured values: patent publication US9808466B2, “Macrocyclic compounds as protein kinase inhibitors” (Fundación Centro Nacional de Investigaciones Oncologicas …, priority 2011, dated 2017)
Like-named read-outs stand apart in the source and are kept apart here.

Key:
PIM-1 = target: T1, PIM-1 (Homo sapiens, UniProt P11309); assay: PIM-1 biochemical assay (ADP Hunter)
T1 construct: histidine tag (C); made in house
Excerpt: The biochemical assay to measure PIM-1 activity relies on the ADP Hunter assay kit (DiscoveRx Corp., Cat. #90-0077), that determines the amount of ADP as direct product of the kinase enzyme activity.
The enzyme has been expressed and purified in-house as a recombinant human protein with a C-terminal histidine tag. The protein is active and stable.
Assay conditions were as indicated by the kit manufacturers with the following adaptations for the kinase activity step: • Kinase assay buffer and assay volume stay as recommended (15 mM HEPES, pH 7.4, 20 mM NaCl, 1 mM EGTA, 0.02% Tween 20, 10 mM MgCl2 and 0.1 mg/ml bovine γ-globulins/75 μl assay volume) • Incubation time and temperature: 60 min at 30° C. • PIM-1 concentration: 50 pg/μl • ATP concentration: 100 μM • PIM-1 substrate peptide: PIMtide ([…]) (SEQIDNO. 1) • Peptide concentration: 60 μM • Positive control for kinase activity inhibition: 1-10 μM Staurosporine • DMSO concentration have to stay below 2% during the kinase reaction
Assays were performed in either 96 or 384-well plates. The final outcome of the coupled reactions provided by the kit is the release of the fluorescent product Resorufin and has been measured with a multilabel HTS counter VICTOR V (PerkinElmer) using an excitation filter at 544 nm and an emission filter at 580 nm.

mTOR = target: T2, mTOR (Homo sapiens, UniProt P42345); assay: mTOR assay (LanthaScreen kinase activity assay); type: biochemical
T2 construct: purchased Invitrogen PV4754
T2 sequence (P42345 1360-2549 limits assumed): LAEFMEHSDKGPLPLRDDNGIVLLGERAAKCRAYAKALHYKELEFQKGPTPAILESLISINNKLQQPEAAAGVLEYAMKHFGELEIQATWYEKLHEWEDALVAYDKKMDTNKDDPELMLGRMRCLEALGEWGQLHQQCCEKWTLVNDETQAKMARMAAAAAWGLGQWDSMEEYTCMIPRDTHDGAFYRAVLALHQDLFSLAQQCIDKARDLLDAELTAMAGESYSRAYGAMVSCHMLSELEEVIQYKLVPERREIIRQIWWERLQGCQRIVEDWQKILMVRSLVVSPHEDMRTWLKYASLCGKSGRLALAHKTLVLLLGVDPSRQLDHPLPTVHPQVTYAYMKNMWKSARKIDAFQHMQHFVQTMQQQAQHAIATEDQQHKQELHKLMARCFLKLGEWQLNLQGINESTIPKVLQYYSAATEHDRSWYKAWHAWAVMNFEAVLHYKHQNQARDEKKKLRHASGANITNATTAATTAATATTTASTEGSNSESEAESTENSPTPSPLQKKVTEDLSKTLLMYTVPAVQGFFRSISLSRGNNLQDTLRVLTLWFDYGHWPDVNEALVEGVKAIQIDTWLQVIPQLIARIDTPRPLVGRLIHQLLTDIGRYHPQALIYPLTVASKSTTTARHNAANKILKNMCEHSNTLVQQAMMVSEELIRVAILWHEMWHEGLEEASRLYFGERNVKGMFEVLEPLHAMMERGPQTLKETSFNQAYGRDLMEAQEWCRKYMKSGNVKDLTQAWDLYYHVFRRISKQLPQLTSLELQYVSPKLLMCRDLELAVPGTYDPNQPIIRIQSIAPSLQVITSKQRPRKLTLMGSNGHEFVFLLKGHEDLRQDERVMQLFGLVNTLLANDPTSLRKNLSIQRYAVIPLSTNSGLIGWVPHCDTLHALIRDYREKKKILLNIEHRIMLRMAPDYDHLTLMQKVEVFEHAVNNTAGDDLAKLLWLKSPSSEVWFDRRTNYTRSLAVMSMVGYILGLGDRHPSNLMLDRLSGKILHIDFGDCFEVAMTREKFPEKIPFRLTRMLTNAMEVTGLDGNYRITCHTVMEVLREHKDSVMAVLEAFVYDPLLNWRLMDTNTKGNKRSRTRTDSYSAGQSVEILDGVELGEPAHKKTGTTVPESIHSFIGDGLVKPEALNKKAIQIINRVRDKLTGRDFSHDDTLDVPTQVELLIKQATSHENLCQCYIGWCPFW
Procedure: The enzymatic mTOR activity was measured using a LanthaScreen™ kinase activity assay (Invitrogen). The enzyme was purchased from Invitrogen (PV4754), as well as the GFP-labeled substrate (4EBP1-GFP; PV4759) and the Tb-anti-p4EBP1(pThr46) antibody (PV4757). The assay was performed in 50 mM HEPES buffer, pH 7.5, containing 1.5 mM MnCl2, 10 mM MgCl2, 1 mM EGTA, 2.5 mM DTT and 0.01% Tween-20. The concentration of the assay components were the following: 0.24 nM mTOR kinase, 400 nM 4EBP1-GFP, […] and serial dilutions of the compound (inhibitor) to be evaluated. After 1 h incubation at room temperature, 20 mM EDTA was used to stop the reaction and terbium-labeled antibody (4 nM) added to detect phosphorylated product. The antibody associates with the phosphorylated product resulting in an increased TR-FRET value. The TR-FRET value (a dimensionless number) was calculated as the ratio of the acceptor signal (GFP, emission at 520 nm) to the donor signal (terbium, emission at 495 nm). Values were plotted against the inhibitor concentration and fitted to a sigmoid dose-response curve using GraphPad software.

PI3K (p110α/p85α) = target: T3, PI3K (p110α/p85α) (Homo sapiens, UniProt P42336); assay: PI3K activity assay (ADP Hunter Plus); type: biochemical
T3 construct: purchased Carna Biosciences 07CBS-0402A
T3 sequence (P42336 whole entry): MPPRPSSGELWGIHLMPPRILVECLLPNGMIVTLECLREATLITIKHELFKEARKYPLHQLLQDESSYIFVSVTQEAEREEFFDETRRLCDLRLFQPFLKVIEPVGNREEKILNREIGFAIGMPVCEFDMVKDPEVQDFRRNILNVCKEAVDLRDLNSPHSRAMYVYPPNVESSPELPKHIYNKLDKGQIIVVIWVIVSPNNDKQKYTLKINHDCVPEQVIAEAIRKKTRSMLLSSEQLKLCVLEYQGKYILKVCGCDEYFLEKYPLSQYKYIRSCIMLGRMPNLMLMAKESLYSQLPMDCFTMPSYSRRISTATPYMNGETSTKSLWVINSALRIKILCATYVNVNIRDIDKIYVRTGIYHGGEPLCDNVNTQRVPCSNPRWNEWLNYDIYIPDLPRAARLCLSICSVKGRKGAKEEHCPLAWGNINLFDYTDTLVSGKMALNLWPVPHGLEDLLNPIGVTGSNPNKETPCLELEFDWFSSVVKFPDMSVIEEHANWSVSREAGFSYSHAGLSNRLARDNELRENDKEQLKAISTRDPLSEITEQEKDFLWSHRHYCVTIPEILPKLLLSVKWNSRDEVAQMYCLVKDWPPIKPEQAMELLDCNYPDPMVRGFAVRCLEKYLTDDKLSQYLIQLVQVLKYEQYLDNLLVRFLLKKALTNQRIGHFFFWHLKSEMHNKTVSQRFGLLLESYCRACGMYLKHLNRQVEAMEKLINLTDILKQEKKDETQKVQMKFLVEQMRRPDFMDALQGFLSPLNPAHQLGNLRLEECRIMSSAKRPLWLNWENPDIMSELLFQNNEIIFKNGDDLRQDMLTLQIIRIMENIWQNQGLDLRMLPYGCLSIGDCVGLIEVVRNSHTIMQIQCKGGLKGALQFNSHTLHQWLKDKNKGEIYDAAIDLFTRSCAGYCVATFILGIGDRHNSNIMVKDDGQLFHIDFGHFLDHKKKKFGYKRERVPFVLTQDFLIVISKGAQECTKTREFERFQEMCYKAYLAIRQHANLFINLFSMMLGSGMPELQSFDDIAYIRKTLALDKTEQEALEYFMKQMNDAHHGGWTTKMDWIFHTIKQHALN
T3 sequence (P27986 whole entry partner): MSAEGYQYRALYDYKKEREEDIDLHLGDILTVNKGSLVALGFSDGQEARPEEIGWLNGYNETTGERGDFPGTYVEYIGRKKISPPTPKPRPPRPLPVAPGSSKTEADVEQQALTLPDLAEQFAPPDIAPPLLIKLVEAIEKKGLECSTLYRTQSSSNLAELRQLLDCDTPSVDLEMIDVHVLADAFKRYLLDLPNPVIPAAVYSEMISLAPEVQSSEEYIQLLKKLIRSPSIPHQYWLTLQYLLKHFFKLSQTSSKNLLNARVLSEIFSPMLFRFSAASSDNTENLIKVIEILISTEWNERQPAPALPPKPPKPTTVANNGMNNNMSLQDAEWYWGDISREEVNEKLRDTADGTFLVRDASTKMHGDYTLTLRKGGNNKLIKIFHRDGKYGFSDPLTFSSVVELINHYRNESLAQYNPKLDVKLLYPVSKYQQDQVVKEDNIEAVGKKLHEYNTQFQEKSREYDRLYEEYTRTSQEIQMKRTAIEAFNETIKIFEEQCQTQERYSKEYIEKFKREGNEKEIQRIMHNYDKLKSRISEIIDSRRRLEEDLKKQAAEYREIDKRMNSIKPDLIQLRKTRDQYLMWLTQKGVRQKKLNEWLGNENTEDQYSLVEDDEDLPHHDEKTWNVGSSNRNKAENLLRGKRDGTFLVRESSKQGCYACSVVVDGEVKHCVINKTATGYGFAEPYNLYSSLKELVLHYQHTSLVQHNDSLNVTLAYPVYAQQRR
Procedure: The kinase activity was measured by using the commercial ADP Hunter™ Plus assay available from DiscoveRx (#33-016), which is a homogeneous assay to measure the accumulation of ADP, a universal product of kinase activity. […] Reaction was carried out for 1 hour at 25° C. Reagent A and B were sequentially added to the wells and plates were incubated for 30 min at 37° C. Fluorescence counts were read in a Victor instrument (Perkin Elmer) with the recommended settings (544 and 580 nm as excitation and emission wavelengths, respectively). Values were normalized against the control activity included for each enzyme (i.e., 100% PI3 kinase activity, without compound). These values were plotted against the inhibitor concentration and were fit to a sigmoid dose-response curve by using the Graphad software.

[1] = read-out: PIM-1 IC50 (in parentheses)
[2] = read-out: PIM-1 activity (semi-quantitative IC50)
[3] = read-out: mTOR IC50 (in parentheses)
[4] = read-out: mTOR activity (semi-quantitative IC50)
[5] = read-out: PI3K alpha IC50 (in parentheses)
[6] = read-out: PI3K alpha activity (semi-quantitative IC50)

T1 sequence (P11309 whole entry): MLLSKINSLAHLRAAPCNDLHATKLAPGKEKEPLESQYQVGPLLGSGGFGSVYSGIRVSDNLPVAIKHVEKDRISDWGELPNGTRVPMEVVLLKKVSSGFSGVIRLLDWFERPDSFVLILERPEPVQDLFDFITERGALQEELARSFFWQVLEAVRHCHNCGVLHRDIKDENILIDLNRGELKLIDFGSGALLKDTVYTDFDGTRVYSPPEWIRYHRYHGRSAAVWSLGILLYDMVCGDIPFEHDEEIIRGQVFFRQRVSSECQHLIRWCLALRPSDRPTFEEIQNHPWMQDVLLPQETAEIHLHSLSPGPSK

| SMILES | IC50 (PIM-1; [1]) [nM] | IC50 (PIM-1; [2]) [nM] | IC50 (mTOR; [3]) [nM] | IC50 (mTOR; [4]) [nM] | IC50 (PI3K (p110α/p85α); [5]) [nM] | IC50 (PI3K (p110α/p85α); [6]) [nM] |
| --- | --- | --- | --- | --- | --- | --- |
| COc1ncc2cc1NS(=O)(=O)c1ccc(F)c(c1)C(=O)NCC1=CC=C(S1)c1ncnc3c1SC2=C3C [compound 90] | 27 | < 100 | 56 | < 100 | 1.8 | < 100 |
| COc1ncc2cc1NS(=O)(=O)c1cccc(c1)C(=O)NC[C@@H]1CN(CCO1)c1ncnc3c1SC2=C3C [compound 91] | 47 | < 100 | – | 100 to 1000 | 10 | < 100 |
| COc1ncc2cc1NS(=O)(=O)c1cccc(c1)C(=O)NCc1cc(F)cc(c1)-c1ncnc3c1SC2=C3C [compound 92] | – | > 1000 | – | > 1000 | 15 | < 100 |
| COCCOc1ccc2cc1C(=O)NCC1=CC=C(S1)c1ncnc3c1SC(=C3)c1cnc(OC)c(c1)NS2(=O)=O [compound 93] | – | > 1000 | 32 | < 100 | – | 100 to 1000 |
| COc1ncc2cc1NS(=O)(=O)c1cccc(c1)C(=O)NC[C@@H]1CCN(C1)c1ncnc3c1SC2=C3C [compound 94] | 65 | < 100 | – | > 1000 | 26 | < 100 |
| COCCOc1ccc2cc1C(=O)NCC1=CC=C(S1)c1ncnc3c1SC(=C3C)c1cnc(OC)c(c1)NS2(=O)=O [compound 95] | – | 100 to 1000 | – | > 1000 | 20 | < 100 |
| COc1ccc2cc1C(=O)NCC1=CC=C(S1)c1ncnc3c1SC(=C3)c1cnc(OC)c(c1)NS2(=O)=O [compound 97] | 62 | < 100 | – | > 1000 | – | 100 to 1000 |
| COc1ncc2cc1NS(=O)(=O)c1ccc(Cl)c(c1)C(=O)NCC1=CC=C(S1)c1ncnc3c1SC2=C3 [compound 98] | 13 | < 100 | – | > 1000 | 37 | < 100 |
| COc1ncc2cc1NS(=O)(=O)c1cccc(c1)C(=O)NC[C@H]1CCN(C1)c1ncnc3c1SC2=C3C [compound 99] | 53 | < 100 | – | > 1000 | 43 | < 100 |
| COc1ccc2cc1C(=O)NCC1=CC=C(S1)c1ncnc3c1SC(=C3C)c1cnc(OC)c(c1)NS2(=O)=O [compound 100] | 31 | < 100 | – | > 1000 | 3.3 | < 100 |
| COc1ncc2cc1NS(=O)(=O)c1cccc(c1)C(=O)NCC1=CC=C(S1)c1ccnc3c1SC2=C3C [compound 101] | 21 | < 100 | – | > 1000 | 26 | < 100 |
| COc1ncc2cc1NS(=O)(=O)c1ccc(Cl)c(c1)C(=O)NCC1=CC=C(S1)c1ccnc3c1SC2=C3C [compound 102] | 9.5 | < 100 | 28 | < 100 | 0.1 | < 100 |
